In ChEMBL document CHEMBL1138543, “Design and synthesis of calpain inhibitory 6-pyridone 2-carboxamide derivatives” (Eur J Med Chem, 2009):

Molecular target: T1, Calpain-1 catalytic subunit (Homo sapiens, UniProt P07384)
T1 sequence (P07384 whole entry): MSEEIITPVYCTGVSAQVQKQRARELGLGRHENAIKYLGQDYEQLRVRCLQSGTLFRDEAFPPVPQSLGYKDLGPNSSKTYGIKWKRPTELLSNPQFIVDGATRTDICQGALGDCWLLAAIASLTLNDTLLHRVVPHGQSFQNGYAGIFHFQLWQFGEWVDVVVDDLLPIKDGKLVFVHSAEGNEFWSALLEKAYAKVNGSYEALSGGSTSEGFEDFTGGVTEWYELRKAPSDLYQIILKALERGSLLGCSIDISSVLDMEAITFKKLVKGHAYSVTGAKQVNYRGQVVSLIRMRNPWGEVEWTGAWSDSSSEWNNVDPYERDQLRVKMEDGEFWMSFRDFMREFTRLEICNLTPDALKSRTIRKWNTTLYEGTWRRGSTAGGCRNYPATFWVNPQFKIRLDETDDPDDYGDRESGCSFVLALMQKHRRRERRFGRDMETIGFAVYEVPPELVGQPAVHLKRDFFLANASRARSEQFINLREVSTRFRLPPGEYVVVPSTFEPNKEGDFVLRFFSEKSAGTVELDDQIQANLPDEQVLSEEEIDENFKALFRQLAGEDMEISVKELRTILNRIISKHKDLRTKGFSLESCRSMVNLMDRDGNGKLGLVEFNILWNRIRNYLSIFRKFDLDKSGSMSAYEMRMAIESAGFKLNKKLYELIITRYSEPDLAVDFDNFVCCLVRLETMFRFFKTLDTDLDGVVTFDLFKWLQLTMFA
Assay: Inhibition of human erythrocytes mu-calpain by spectrofluorimeter

Row | IC50 [µM] | Compound
1 | 6.19 | COc1ccc(CCNC(=O)C(=O)[C@H](Cc2ccccc2)NC(=O)c2[nH]c(=O)ccc2C)cc1
2 | 6.19 | COc1ccc(CNC(=O)C(=O)[C@H](Cc2ccccc2)NC(=O)c2[nH]c(=O)ccc2C)cc1
3 | 84.8 | Cc1ccc(=O)[nH]c1C(=O)N[C@@H](Cc1ccccc1)C(=O)C(=O)NCc1ccccn1
4 | 35.3 | COc1ccc(CNC(=O)C(=O)[C@H](Cc2ccccc2)NC(=O)c2[nH]c(=O)ccc2C)cc1OC
5 | 64.6 | Cc1ccc(=O)[nH]c1C(=O)N[C@@H](Cc1ccccc1)C(=O)C(=O)NCc1ccccc1
6 | 91.4 | CNC(=O)C(=O)[C@H](Cc1ccccc1)NC(=O)c1[nH]c(=O)ccc1C
7 | 2.81 | Cc1ccc(=O)[nH]c1C(=O)N[C@@H](Cc1ccccc1)C(=O)C(N)=O
8 | 7.41 | Cc1ccc(=O)[nH]c1C(=O)N[C@@H](Cc1ccccc1)C(=O)C(=O)NCCc1ccccc1
9 | > 100 | Cc1ccc(=O)[nH]c1C(=O)N[C@@H](Cc1ccccc1)C(=O)C(=O)NC(C)C
10 | 34 | Cc1ccc(=O)[nH]c1C(=O)N[C@@H](Cc1ccccc1)C(=O)C(=O)NCCc1ccccn1
11 | 40.2 | CCNC(=O)C(=O)[C@H](Cc1ccccc1)NC(=O)c1[nH]c(=O)ccc1C
12 | 22.1 | Cc1ccc(=O)[nH]c1C(=O)N[C@@H](Cc1ccccc1)C(=O)C(=O)NCc1ccc(F)cc1
